Assay results published in US12064516B2, “Pharmaceutical formulations and uses thereof” (Aldeyra Therapeutics, Inc., priority 2020, dated 2024).
Where two headings read alike, the source gives them in different places.

Assay: Phase 1 clinical trial, multiple ascending dose (MAD) pharmacokinetics
Type: in vivo, human
Details: for Cmax / half-life / AUC(0-t): human, in vivo; for AUC(0-t): read-out: Mean AUC0-12
Text: PK data are presented below.

SMILES: CC(C)(O)c1nc2ccccc2cc1N [I-1]
- accumulation of the drug (across all cohorts): Little to no accumulation
- relation of Cmax and AUC to dose (as dose increased, Phase 1 cohorts): linear correlation
- Cmax (oral, 600 mg, top dose 600 mg BID, read-out: Cmax expressed as molar concentration): ~8.5 µM
- half-life (oral, multiple day exposures, across cohorts and days, read-out: half-life (t1/2), range of mean values): 3.49 to 6.83 h
- AUC(0-t) (po, 50 mg, oral 50 mg BID, Day 1): ~148 ng·h/mL
- Cmax (po, 50 mg, oral 50 mg BID, Day 1, read-out: Mean Cmax): ~70.2 ng/mL
- half-life (po, 50 mg, oral 50 mg BID, Day 1, read-out: Mean t1/2 (converted)): ~3.49 h
- AUC(0-t) (po, 50 mg, oral 50 mg BID, Day 10): 252 ng·h/mL
- Cmax (po, 50 mg, oral 50 mg BID, Day 10, read-out: Mean Cmax): 85.9 ng/mL
- half-life (po, 50 mg, oral 50 mg BID, Day 10, read-out: Mean t1/2 (converted)): 5.25 h
- AUC(0-t) (po, 150 mg, oral 150 mg BID, Day 1): ~809 ng·h/mL
- Cmax (po, 150 mg, oral 150 mg BID, Day 1, read-out: Mean Cmax): ~343 ng/mL
- half-life (po, 150 mg, oral 150 mg BID, Day 1, read-out: Mean t1/2 (converted)): ~4.86 h
- AUC(0-t) (po, 150 mg, oral 150 mg BID, Day 10): 1170 ng·h/mL
- Cmax (po, 150 mg, oral 150 mg BID, Day 10, read-out: Mean Cmax): 320 ng/mL
- half-life (po, 150 mg, oral 150 mg BID, Day 10, read-out: Mean t1/2 (converted)): 6.34 h
- AUC(0-t) (po, 350 mg, oral 350 mg BID, Day 1): ~2950 ng·h/mL
- Cmax (po, 350 mg, oral 350 mg BID, Day 1, read-out: Mean Cmax): ~1190 ng/mL
- half-life (po, 350 mg, oral 350 mg BID, Day 1, read-out: Mean t1/2 (converted)): ~5.67 h
- AUC(0-t) (po, 350 mg, oral 350 mg BID, Day 10): 4340 ng·h/mL
- Cmax (po, 350 mg, oral 350 mg BID, Day 10, read-out: Mean Cmax): 1230 ng/mL
- half-life (po, 350 mg, oral 350 mg BID, Day 10, read-out: Mean t1/2 (converted)): 6.83 h
- AUC(0-t) (po, 600 mg, oral 600 mg BID, Day 1): ~6450 ng·h/mL
- Cmax (po, 600 mg, oral 600 mg BID, Day 1, read-out: Mean Cmax): ~2230 ng/mL
- half-life (po, 600 mg, oral 600 mg BID, Day 1, read-out: Mean t1/2 (converted)): ~4.15 h
- AUC(0-t) (po, 600 mg, oral 600 mg BID, Day 10): 7220 ng·h/mL
- Cmax (po, 600 mg, oral 600 mg BID, Day 10, read-out: Mean Cmax): 1700 ng/mL
- half-life (po, 600 mg, oral 600 mg BID, Day 10, read-out: Mean t1/2 (converted)): 4.66 h
- Mean AUC0-12 (oral 50 mg BID, Day 1): 148 ng·h/mL
- Mean AUC0-12 (oral 50 mg BID, Day 10): ~252 ng·h/mL
- Mean AUC0-12 (oral 150 mg BID, Day 1): 809 ng·h/mL
- Mean AUC0-12 (oral 150 mg BID, Day 10): ~1170 ng·h/mL
- Mean AUC0-12 (oral 350 mg BID, Day 1): 2950 ng·h/mL
- Mean AUC0-12 (oral 350 mg BID, Day 10): ~4340 ng·h/mL
- Mean AUC0-12 (oral 600 mg BID, Day 1): 6450 ng·h/mL
- Mean AUC0-12 (oral 600 mg BID, Day 10): ~7220 ng·h/mL
